Usually IC50 stands for the concentration at which inhibition is half-maximal.

The record followed here is patent US8476264B2, “N-(3-(2-amino-6,6-difluoro-4,4A,5,6,7,7A-hexahydro-cyclopenta[E][1,3]oxazin-4-yl)-phenylamides as BACE1 inhibitors” (Hoffmann-La Roche Inc., priority 2011, dated 2013).

In data set [1] the target is T1, cathepsin D (from human liver) (Homo sapiens, UniProt P07339).
T1 construct: cathepsin D (from human liver, Calbiochem) diluted in assay buffer; purchased Calbiochem; host or cells: purified from human liver
As to the kind of experiment: Cathepsin D fluorescent substrate kinetic assay. In kind it is biochemical. The note with it: pH 5.5, substrate […]-MR121. The text has this: Cathepsin D and Cathepsin E Fluorescent Substrate Kinetic Assays
The MR121 fluorescence assays described below are based on the fact that MR121 forms a non-fluorescent ground state complex with tryptophan. In solution this formation occurs at millimolar concentrations of tryptophan. The mechanism can be used to design a generic biochemical assay for proteases. A substrate peptide is labeled at the N-terminus with tryptophan and at the C-terminus with the fluorophore MR121 (for cathepsin D the 10 amino acid peptide […]-MR121 was used; for cathepsin E, MR121-[…] was used). In absence of protease activity, the substrates remain intact and the MR121 fluorescence is reduced by the high local Trp-concentration. If the substrates are cleaved by the enzymes the MR121 fluorescence is recovered.
The fluorescent substrate cathepsin D and cathepsin E kinetic assays were performed at room temperature in 384-well microtiter plates (black with clear flat bottom, non binding surface plates from Corning) in a final volume of 51 μl. The test compounds were serially diluted in DMSO (15 concentrations, ⅓ dilution steps) and 1 μl of diluted compounds were mixed for 10 min with 40 μl of cathepsin D (from human liver, Calbiochem) diluted in assay buffer (100 mM sodium acetate, 0.05% BSA, pH 5.5; final concentration: 200 nM) or with 40 μl of recombinant human cathepsin E (R&D Systems) diluted in assay buffer (100 mM sodium acetate, 0.05% BSA, pH 4.5; final concentration: 0.01 nM). After addition of 10 μl of the cathepsin D substrate […]-MR121 diluted in cathepsin D assay buffer (final concentration: 300 nM) or […] cathepsin E substrate MR121-[…] diluted in cathepsin E assay buffer (final concentration: 300 nM), the plates were strongly shaken for 2 minutes. The enzymatic reaction was followed in a plate: vision reader (Perkin Elmer) (excitation wavelength: 630 nm; emission: 695 nm) for at least 30 minutes in a kinetic measurement detecting an increase of MR121 fluorescence during the reaction time. The slope in the linear range of the kinetic was calculated and the IC50 of the test compounds were determined using a four parameter equation for curve fitting.

Another data set addresses T2, CYP3A4 (Homo sapiens, UniProt P08684).
T2 construct: 0.2 mg/ml pooled human liver microsomes; from tissue; host or cells: pooled human liver microsomes
As to the kind of experiment: CYP inhibition assay, CYP3A4. The note with it: human liver microsomes, midazolam 1' hydroxylase; read-out: CYP IC50 3A4. It counts as in vitro ADME. The method, then:
(§1) Inhibition of cytochromes P450 (CYPs) 2C9, 2D6 and 3A4 was assessed using human liver microsomes and CYP-selective substrate metabolism reactions. 50 μl incubations were made up containing (finally) 0.2 mg/ml pooled human liver microsomes, 5 μM substrate (diclofenac for CYP2C9 [4′ hydroxylase], dextromethorphan for CYP2D6 [O-demethylase] or midazolam for CYP3A4 [1′ hydroxylase]), 0.25 μL DMSO containing test inhibitor and NADPH regenerating system. Test inhibitor concentrations of 50, 16.7, 5.6, 1.9, 0.6 and 0.2 μM were assessed in singlicate. Incubations were pre-warmed to 37° C. for 10 minutes before initiation by addition of NADPH regenerating system. Incubations were quenched after 5 minutes (20 minutes for dextromethorphan) by addition of 50 μl cold acetonitrile containing 20 ng/ml 4-OH-diclofenac-13C6, 20 ng/mL dextrorphan-D3 and 20 ng/mL 1-OH-midazolam-D4. Quenched incubates were stored at −20° C. for at least 1 hour before centrifugation (20,000×g, 20 minutes). Supernatants were removed and diluted 1:1 with water prior to analysis using a RapidFire sample injector system and API4000 mass spectrometer. Peak areas for substrate, metabolite and stable-labelled metabolite standard were determined using MS/MS. The peak area ratios between the metabolite generated by the enzymatic reaction and the internal standard were used in subsequent calculations. The percentage of (DMSO) control activity was calculated for each incubate and IC50 values estimated by non-linear regression. Sulfaphenazole, quinidine or ketoconazole were tested in each CYP2C9, CYP2D6 or CYP3A4 inhibition experiment, respectively, to ensure assay sensitivity and reproducibility. (Validated assays for human cytochrome P450 activities, R. L. Walsky and R. S. Obach, Drug Metabolism and Disposition 32: 647-660, 2004. and S. Fowler and H. Zhang, The AAPS Journal, Vol. 10, No. 2, 410-424, 2008.)
Background: Liver microsomes are a subcellular fraction often used to study metabolism.

The target in the next data set is T3, CYP2C9 (Homo sapiens, UniProt P11712).
T3 construct: 0.2 mg/ml pooled human liver microsomes; from tissue; host or cells: pooled human liver microsomes
The data set is described as follows: CYP inhibition assay, CYP2C9. It counts as in vitro ADME. The note with it: human liver microsomes, diclofenac 4' hydroxylase; read-out: CYP IC50 2C9. On the procedure: as §1

Another data set deals with T4, hERG channel (Homo sapiens, UniProt Q12809).
T4 construct: expressed in transfected cells; host or cells: CHO cells
The data set is described as follows: PatchXpress hERG inhibition assay. In kind it is cell-based. The conditions noted are these: @ 1 μM; CHO cells transfected with hERG, automated patch clamp. The method, then: PatchXpress hERG Inhibition Assay
The detailed method to quantify hERG channel inhibition by the automated patch clamp system PatchXpress® 7000A (Molecular Devices, Sunnyvale, Calif.) has been described by Guo et al. (J of Pharmacol & Tox Methods, (2005) 52(1):123-35). In brief, Chinese hamster ovary (CHO) cells transfected with the human ether-a-go-go-related gene (hERG) was cultured in Ex-cell 302 media supplemented with 10% fetal bovine serum, 2 mM glutamine and 0.25 mg/ml geneticin and maintained in a CO2 incubator at 37° C. For patch clamp electrophysiology, the external buffer contained (in mM): 150 NaCl, 10 Hepes, 4 KCl, 1.2 CaCl2, 1 MgCl2, pH 7.4 adjusted with […] and the internal recording solution contained (in mM): 140 KCl, 6 EGTA, 5 Hepes, MgCl2, 5 ATP-Na2, pH 7.2 adjusted with KOH. Once the cell was loaded in the recording chamber and formed a giga ohm seal with the planar glass electrodes (Sealchip™), a whole-cell configuration was achieved by rupturing the cell membrane. The membrane potential was then clamped at −80 mV and the hERG channel activated by a 1-second depolarizing pulse delivered at 0.1 Hz, the hERG current was measured during the 500 ms-repolarizing pulse to −40 mV. After an acceptable hERG current recording was obtained, the cell was first exposed to 0.3% DMSO as the vehicle control, followed by the test article in three ascending, full-log interval concentrations and finally E-4031 at 1 μM (as the positive control) to block the hERG current completely. […] The inhibition of hERG current at each concentration was normalized to that recorded in the vehicle control, and fitted with Hill equation to calculate IC20 and/or IC50.
For orientation: Block of hERG is tested as a sign of cardiac risk.

Another data set can be described thus: in vivo effect. The conditions noted are these: % of control @ 30 mg/kg p.o.
The target in the next data set is T5, CYP2D6 (Homo sapiens, UniProt P10635).
T5 construct: 0.2 mg/ml pooled human liver microsomes; from tissue; host or cells: pooled human liver microsomes
The data set is described as follows: CYP inhibition assay, CYP2D6. The conditions noted are these: human liver microsomes, dextromethorphan O-demethylase; read-out: CYP IC50 2D6. It counts as in vitro ADME. The method, then:
as §1

T5 sequence (P10635 whole entry): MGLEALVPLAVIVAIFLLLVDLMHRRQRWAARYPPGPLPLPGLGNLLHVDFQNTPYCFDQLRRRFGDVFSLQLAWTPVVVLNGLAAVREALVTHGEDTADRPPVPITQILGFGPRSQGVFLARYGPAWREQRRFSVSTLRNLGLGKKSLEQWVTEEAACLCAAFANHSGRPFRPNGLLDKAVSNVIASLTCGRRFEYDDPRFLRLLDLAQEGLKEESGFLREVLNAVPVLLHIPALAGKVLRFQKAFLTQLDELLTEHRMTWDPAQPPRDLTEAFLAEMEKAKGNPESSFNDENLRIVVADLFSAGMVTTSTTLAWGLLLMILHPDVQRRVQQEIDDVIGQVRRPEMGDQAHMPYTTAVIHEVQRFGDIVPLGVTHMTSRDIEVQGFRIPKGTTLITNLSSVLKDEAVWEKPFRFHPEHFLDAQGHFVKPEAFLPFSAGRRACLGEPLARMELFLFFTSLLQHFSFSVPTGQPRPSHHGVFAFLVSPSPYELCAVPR
T4 sequence (Q12809 whole entry): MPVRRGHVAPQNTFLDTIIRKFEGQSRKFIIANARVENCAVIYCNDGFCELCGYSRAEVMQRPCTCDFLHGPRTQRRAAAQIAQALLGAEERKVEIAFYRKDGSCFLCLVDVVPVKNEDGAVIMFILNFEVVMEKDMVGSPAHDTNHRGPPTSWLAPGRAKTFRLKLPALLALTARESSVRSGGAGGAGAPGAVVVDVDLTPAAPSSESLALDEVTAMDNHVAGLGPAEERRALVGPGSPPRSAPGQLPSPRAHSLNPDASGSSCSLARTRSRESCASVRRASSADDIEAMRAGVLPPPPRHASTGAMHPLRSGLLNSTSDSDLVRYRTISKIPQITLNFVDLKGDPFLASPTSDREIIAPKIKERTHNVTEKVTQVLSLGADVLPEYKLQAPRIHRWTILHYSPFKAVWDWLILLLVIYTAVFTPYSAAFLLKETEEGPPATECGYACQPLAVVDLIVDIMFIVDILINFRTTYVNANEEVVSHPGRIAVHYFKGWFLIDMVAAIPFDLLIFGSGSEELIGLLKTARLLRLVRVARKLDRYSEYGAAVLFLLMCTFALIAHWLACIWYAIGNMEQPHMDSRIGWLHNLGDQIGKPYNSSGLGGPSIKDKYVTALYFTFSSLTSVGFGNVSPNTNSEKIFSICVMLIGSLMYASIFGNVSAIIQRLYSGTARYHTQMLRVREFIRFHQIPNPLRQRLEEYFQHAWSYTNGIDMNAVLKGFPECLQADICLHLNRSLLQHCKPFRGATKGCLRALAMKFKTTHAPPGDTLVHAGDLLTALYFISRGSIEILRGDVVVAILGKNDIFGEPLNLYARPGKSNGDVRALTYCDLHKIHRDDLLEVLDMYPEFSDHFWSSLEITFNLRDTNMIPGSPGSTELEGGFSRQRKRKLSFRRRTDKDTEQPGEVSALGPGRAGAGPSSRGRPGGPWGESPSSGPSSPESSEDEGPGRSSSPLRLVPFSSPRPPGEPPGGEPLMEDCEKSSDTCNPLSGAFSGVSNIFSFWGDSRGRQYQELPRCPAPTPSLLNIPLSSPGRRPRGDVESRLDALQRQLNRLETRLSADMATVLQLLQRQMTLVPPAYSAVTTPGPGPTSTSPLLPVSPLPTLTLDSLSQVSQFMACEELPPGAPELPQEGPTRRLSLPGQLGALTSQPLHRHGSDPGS
T1 sequence (P07339 65-162 limits assumed): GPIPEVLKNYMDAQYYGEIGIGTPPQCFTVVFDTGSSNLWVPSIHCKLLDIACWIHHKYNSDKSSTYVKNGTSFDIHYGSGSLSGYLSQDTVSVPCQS
T1 sequence (P07339 169-412 limits assumed): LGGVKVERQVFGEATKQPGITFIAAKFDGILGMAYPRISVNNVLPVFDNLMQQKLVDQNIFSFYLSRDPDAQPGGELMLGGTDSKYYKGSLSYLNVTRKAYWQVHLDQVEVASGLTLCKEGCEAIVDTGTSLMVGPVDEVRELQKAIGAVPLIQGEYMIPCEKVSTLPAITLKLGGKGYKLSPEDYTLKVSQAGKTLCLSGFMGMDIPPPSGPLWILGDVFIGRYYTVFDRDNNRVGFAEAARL
T2 sequence (P08684 whole entry): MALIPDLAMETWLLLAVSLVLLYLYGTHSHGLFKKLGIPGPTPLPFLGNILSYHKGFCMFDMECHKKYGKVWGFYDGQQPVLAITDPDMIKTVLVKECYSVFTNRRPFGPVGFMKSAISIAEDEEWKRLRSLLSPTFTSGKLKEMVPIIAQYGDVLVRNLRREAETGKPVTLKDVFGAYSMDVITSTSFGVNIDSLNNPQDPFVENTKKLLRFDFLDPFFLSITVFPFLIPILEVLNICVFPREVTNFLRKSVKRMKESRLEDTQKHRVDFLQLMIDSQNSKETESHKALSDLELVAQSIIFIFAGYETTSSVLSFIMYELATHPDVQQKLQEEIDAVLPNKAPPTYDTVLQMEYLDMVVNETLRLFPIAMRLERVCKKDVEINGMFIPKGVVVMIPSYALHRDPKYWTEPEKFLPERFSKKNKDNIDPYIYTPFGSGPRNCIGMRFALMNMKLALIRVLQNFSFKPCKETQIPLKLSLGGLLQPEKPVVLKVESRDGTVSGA
T3 sequence (P11712 whole entry): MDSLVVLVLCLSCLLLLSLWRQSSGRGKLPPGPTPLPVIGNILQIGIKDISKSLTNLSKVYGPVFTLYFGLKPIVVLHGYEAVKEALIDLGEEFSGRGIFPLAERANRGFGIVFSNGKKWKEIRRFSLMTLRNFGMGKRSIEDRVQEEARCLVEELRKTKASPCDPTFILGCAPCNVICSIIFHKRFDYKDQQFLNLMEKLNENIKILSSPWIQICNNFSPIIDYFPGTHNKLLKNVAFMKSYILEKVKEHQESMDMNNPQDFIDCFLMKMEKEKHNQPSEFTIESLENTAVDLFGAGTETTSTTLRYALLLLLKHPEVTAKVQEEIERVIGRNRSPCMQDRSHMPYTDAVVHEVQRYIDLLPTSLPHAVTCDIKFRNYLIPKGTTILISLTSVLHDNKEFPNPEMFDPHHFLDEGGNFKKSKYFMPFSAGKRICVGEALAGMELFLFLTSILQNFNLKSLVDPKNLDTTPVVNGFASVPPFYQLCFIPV

Turning to `N#Cc1ccc(C(=O)Nc2ccc(F)c([C@@]3(CF)N=C(N)O[C@@H]4CC(F)(F)C[C@@H]43)c2)nc1` [Example 3, 5-Cyano-pyridine-2-carboxylic acid [(S)-3-((1R,2R)-2-amino-6,6-difluoro-4-fluoromethyl-4,4a,5,6,7,7a-hexahydro-cyclopenta[e][1,3]oxazin-4-yl)-4-fluoro-phenyl]-amide], the IC50 was more than 200 µM in data set [1], more than 10 µM at CYP3A4, more than 10 µM on CYP2C9 and more than 10 µM on CYP2D6. Also, at hERG channel, the hERG inhibition entry is listed as “B (less than 15% inhibition @ 1 μM)”. The in vivo effect entry in “in vivo effect” is given as “A (less than 50% of control @ 30 mg/kg p.o.)”.

`NC1=N[C@](CF)(c2cc(NC(=O)c3ccc(F)cn3)ccc2F)[C@H]2CC(F)(F)C[C@H]2O1` [Example 7, 5-Fluoro-pyridine-2-carboxylic acid [(S)-3-((1R,2R)-2-amino-6,6-difluoro-4-fluoromethyl-4,4a,5,6,7,7a-hexahydro-cyclopenta[e][1,3]oxazin-4-yl)-4-fluoro-phenyl]-amide]: the IC50 in data set [1] was 93 µM; on CYP3A4, more than 10 µM; at CYP2C9, more than 10 µM; at CYP2D6, more than 10 µM. The hERG inhibition entry on hERG channel was “A (less than 20% inhibition @ 1 μM)”. Besides, the in vivo effect result in the data set “in vivo effect” was “A (less than 50% of control @ 30 mg/kg p.o.)”.

Turning to `NC1=N[C@](CF)(c2cc(NC(=O)c3cnc(C(F)F)cn3)ccc2F)[C@H]2CC(F)(F)C[C@H]2O1` [Example 24, 5-Difluoromethyl-pyrazine-2-carboxylic acid [(S)-3-((1R,2R)-2-amino-6,6-difluoro-4-fluoromethyl-4,4a,5,6,7,7a-hexahydro-cyclopenta[e][1,3]oxazin-4-yl)-4-fluoro-phenyl]-amide], the IC50 is more than 200 µM in data set [1], more than 10 µM on CYP3A4, more than 10 µM on CYP2C9 and more than 10 µM at CYP2D6. Also, at hERG channel, the hERG inhibition result is on record as “B (less than 15% inhibition @ 1 μM)”. The in vivo effect result in “in vivo effect” is “A (less than 50% of control @ 30 mg/kg p.o.)”.

For `N#Cc1ccc(C(=O)Nc2ccc(F)c([C@@]3(C(F)F)N=C(N)O[C@@H]4CC(F)(F)C[C@@H]43)c2)nc1` [Example 36, 5-Cyano-pyridine-2-carboxylic acid [(S)-3-((1R,2R)-2-amino-4-difluoromethyl-6,6-difluoro-4,4a,5,6,7,7a-hexahydro-cyclopenta[e][1,3]oxazin-4-yl)-4-fluoro-phenyl]-amide], the 50% inhibitory concentration (IC50) in data set [1] was more than 200 µM; on CYP3A4 it was more than 10 µM; on CYP2C9, more than 10 µM; at CYP2D6, more than 10 µM. Further, at hERG channel, the hERG inhibition entry is reported as “B (less than 15% inhibition @ 1 μM)”. In addition, the in vivo effect entry in “in vivo effect” is “A (less than 50% of control @ 30 mg/kg p.o.)”.

In the case of `COc1cnc(C(=O)Nc2ccc(F)c([C@@]3(C(F)F)N=C(N)O[C@@H]4CC(F)(F)C[C@@H]43)c2)cn1` [Example 42, 5-Methoxy-pyrazine-2-carboxylic acid [(S)-3-((1R,2R)-2-amino-4-difluoromethyl-6,6-difluoro-4,4a,5,6,7,7a-hexahydro-cyclopenta[e][1,3]oxazin-4-yl)-4-fluoro-phenyl]-amide], the IC50 was more than 150 µM in data set [1], more than 10 µM at CYP3A4, more than 10 µM at CYP2C9 and more than 10 µM at CYP2D6. For the same compound, on hERG channel, the hERG inhibition result was “B (less than 15% inhibition @ 1 μM)”. In “in vivo effect”, the in vivo effect entry is listed as “A (less than 50% of control @ 30 mg/kg p.o.)”.
